Here are results for three compounds from PMC7284133, “Identification and analysis of novel small molecule inhibitors of RNase E: Implications for antibacterial targeting and regulation of RNase E” (Biochemistry and Biophysics Reports, 2020).

Experiment [1] deals with T1, RNase E (Escherichia coli, UniProt P21513).
T1 construct: gene rne; N-terminal domain (aa 1–529), N-terminally His10-tagged
Kind of experiment: FRET-based real-time RNA cleavage assay; also discontinuous PAGE assay. Format: biochemical.

The target of experiment [2] is T2, RNase E (Acinetobacter baumannii, UniProt A0ABX6CBI2).
T2 construct: gene rne; N-terminal domain (aa 1–544), N-terminally His10-tagged
Kind of experiment: biochemical.

T1 sequence (P21513 1-529): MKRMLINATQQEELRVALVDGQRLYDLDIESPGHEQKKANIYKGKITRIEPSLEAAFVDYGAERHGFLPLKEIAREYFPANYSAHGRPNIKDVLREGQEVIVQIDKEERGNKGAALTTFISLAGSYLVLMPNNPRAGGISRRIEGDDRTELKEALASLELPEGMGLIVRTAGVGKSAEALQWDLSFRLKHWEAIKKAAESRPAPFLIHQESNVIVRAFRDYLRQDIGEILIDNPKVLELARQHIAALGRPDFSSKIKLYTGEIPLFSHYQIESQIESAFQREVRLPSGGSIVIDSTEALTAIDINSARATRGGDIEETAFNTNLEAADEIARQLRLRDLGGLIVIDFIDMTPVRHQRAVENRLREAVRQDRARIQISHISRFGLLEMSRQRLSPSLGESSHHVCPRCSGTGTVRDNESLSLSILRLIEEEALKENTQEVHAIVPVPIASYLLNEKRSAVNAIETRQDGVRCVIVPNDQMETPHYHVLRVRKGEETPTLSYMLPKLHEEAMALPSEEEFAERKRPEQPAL

Compound `CC1=NNC(=O)C1CCC(=O)O` (stereo not shown) [5′S1] gave an IC50 in experiment [1] of 2500 µM. Also, the inhibition at 2000 µM in experiment [2] was ~60%.
Consider `N[C@@H]1[C@@H](O)[C@H](O)[C@@H](COP(=O)(O)O)O[C@@H]1O` [AS4, glucosamine-6-phosphate], for which the IC50 in experiment [1] amounted to 2100 µM.
On the same count and under the same terms, next, `CC(C)c1c(O)nc(SCCC(=O)O)[nH]c1=O` [AS2]: 1900 µM.

For orientation: IC50 means the concentration that gives 50% inhibition. Low values mean inhibition by little substance, high ones a need for much substance. As a reminder, the inhibition is the percentage by which the read-out fell short of the control. Low readings indicate little suppression, high ones strong suppression.
